Assay results taken from patent publication US20060021470A1, “Compositions for enhancing biological functions in organisms” (priority 2004, published 2006).

Test system: ech42 (42-kDa endochitinase-encoding) gene expression
Assay: ech42 endochitinase promoter:gfp induction in T. atroviride strain P1
Format: cell-based
Settings: endochitinase promoter:gfp fluorescence in Trichoderma strain P1
Text: To monitor chitinase expression during mycoparasitism of Trichoderma atroviride (formerly T. harzianum) strain P1 in situ, the strain was transformed with plasmids containing fusions of green fluorescent protein (“gfp”) to the 5-regulatory sequences of the T. atroviride nag1 gene (N-acetyl-beta-D-glucosaminidase-encoding) or ech42 (42-kDa endochitinase-encoding) genes. Confronting these strains with the target Rhizoctonia solani led to induction of gene expression before (ech42) or after (nag 1) physical contact. […] The chitinase inhibitor allosamidin blocked ech42 expression and reduced inhibition of R. solani growth during confrontation. […] T. atroviride, T. harzianum, and any other species of Trichoderma produce small quantities of particular enzymes constitutively. […]
The ability of Trichoderma to release elicitor compounds from the various target fungi was measured by induction of gfp in the endochitinase promoter labeled P1 strain of Trichoderma. […]
In subsequent experiments, the release of elicitors from cell walls of some of the same fungi and Oomycetes tested above using enzymes (endochitinase, glucanase, exochitinase, mixed cellulase) purified from T. atroviride was assessed. Again, the elicitation abilities of the materials were assessed with Trichoderma strain P1 transformed to contain the endochitinase promoter:gfp construct. […]

Chitobiose
elicitor activity: least effective
